From PubChem BioAssay AID467 (The Scripps Research Institute Molecular Screening Center, 2006) come the findings set out here.

The source made the active and inactive calls. The rule behind the calls is not given here. A value given as a limit tells only on which side of the number the result lay.

The subject of the experiment is parental cell line counter screen, S1P1 agonist assay readout. The experiment in a line: signal in parental cells, counter-screen for S1P1 agonist project (AID 467).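 Note: agonist potency measured against forskolin stimulation plus an EC20 level of SEW2871.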
Turning to `CCCC(=O)c1ccc(N2CCN(C(=O)c3ccccc3Br)CC2)c(F)c1`, the EC50 was 28.2 µM (inactive). Next, `Cc1cc(N2CCN(C(c3ccccc3)c3ccccc3)CC2)n2ncnc2n1`: > 30 µM (inactive). Regarding `Cc1ccc(-n2c(C)cc(C(=O)COC(=O)c3c(C)noc3C)c2C)cc1`, the EC50 was 37.6 µM (inactive). On to `CCOc1ccc(C(=O)Nc2ccc(Cl)cn2)cc1Cl`, for which the EC50 is > 95.1 µM (inactive). Next, `O=C(Nc1cccc(C(F)(F)F)c1)C1CCCN1S(=O)(=O)c1cccc2cccnc12` (stereo not given): > 30 µM (inactive). For the compound `CC(C)N1C(=O)CCC1C(=O)N1CCC(Cc2ccccc2)CC1` (stereo not given), the EC50 was > 95.1 µM (inactive).

As for `O=C1C2C3C=CC(CO)(O3)C2C(=O)N1c1ccccc1-c1ccccc1` (stereo not given), the EC50 was 2.26 µM. As for `COCCn1c(C)cc(C(=O)CSc2nc3ccccc3o2)c1C`, the EC50 is > 95.1 µM (inactive). As to `CCCn1c(CNc2ccc(Br)cc2)nc2ccccc21`, the EC50 is 38.1 µM (inactive). For `Nc1nnnn1/N=C/C(Br)=C/c1ccccc1`, the half-maximal effective concentration (EC50) is 4.08 µM. For the compound `CCOc1ccc(-c2nc(-c3ccccc3)no2)cc1OCC`, the EC50 was > 95.1 µM (inactive). `N#Cc1ccc(NC(=O)Nc2ccc(Cl)cc2)cc1`: the concentration for a half-maximal effect (EC50) was 9.6 µM. Regarding `Cc1nn(Cc2ccc(Cl)c(Cl)c2)c(C)c1NC(=O)c1cc(C2CC2)on1`, the EC50 is 41.2 µM (inactive). The figure for `COC(=O)CS(=O)(=O)c1nnc([C@H](Cc2ccccc2)NC(=O)OC(C)(C)C)o1` is 3.68 µM; for `CS(=O)(=O)n1nc(OC(=O)c2cccc3ccccc23)cc1N` it is 12 µM (inactive). As to `COc1ccc(-c2nc(-c3ccc(Br)o3)no2)cc1OC`, the EC50 is > 95.1 µM (inactive). For the compound `CCCCNc1cc(C)nc(NCc2ccccc2)n1`, the EC50 was 12.8 µM (inactive). For the compound `COc1ccccc1-c1nc(-c2cccc(C)c2)no1`, the EC50 is > 95.1 µM (inactive). Take `COc1ccccc1-c1cc(C(=O)Nc2cc(C)nn2-c2ccccc2)no1`: the EC50 was > 95.1 µM (inactive).

As for `CCCOC(=O)c1ccc(OCC(O)Cn2c(C)nc3ccccc32)cc1` (stereo not given), the EC50 was > 95.1 µM (inactive). For `CCOc1ccc(C2CC(c3cccc(OC)c3OC)n3nnnc3N2)cc1Cl` (stereo not given), the EC50 is > 95.1 µM (inactive). With `CC1=C(/C=C/C(C)=C/C=C/C(C)=C/C(=O)O)C(C)(C)CCC1`, the EC50 was > 95.1 µM (inactive).

In the case of `CCC1CCCCN1C(=O)CSc1nnc(-c2c[nH]c3ccccc23)o1` (stereo not given), the EC50 was > 30 µM (inactive). On to `Nc1c(C(=O)NC2CCCC2)sc2nc(-c3cccs3)ccc12`, for which the EC50 is 23.1 µM (inactive). For `O=C(Nc1ccc(Cl)cc1)N1CCC(c2nc(-c3ccc(F)cc3)no2)CC1`, the EC50 is 20 µM (inactive). In the case of `O=C(Nc1ncc(Br)s1)C(Cc1ccccc1)n1cccc1` (stereo not given), the EC50 is > 10 µM (inactive).

For `CCCN(C(=O)c1cccs1)c1nnc(-c2ccncc2)s1`, the EC50 is > 95.1 µM (inactive). Turning to `COc1ccc(/C(O)=C2/C(=O)C(=O)N(CC3CCCO3)C2c2cccc(OC)c2)cc1` (stereo not given), the EC50 was > 95.1 µM (inactive). With `O=C(NCc1ccc2c(c1)OCO2)C1CC(=O)N(C2CCCCCCC2)C1` (stereo not given), the EC50 is > 95.1 µM (inactive).

With `Oc1c(C(c2ccco2)N2CCN(C(c3ccccc3)c3ccccc3)CC2)sc2ncnn12` (stereo not given), the EC50 is 39.5 µM (inactive).

In the case of `CC(=O)Nc1ccccc1OCC(=O)c1cc(C)n(Cc2cccs2)c1C`, the EC50 is 10.5 µM (inactive). The figure for `Cn1nc(C(C)(C)C)cc1C(=O)NCc1ccc(N2CCCC2=O)cc1` is > 30 µM (inactive). As for `O=C(Nc1ccc(N2CCCC2)c(Cl)c1)c1ccc(Br)o1`, the EC50 was > 95.1 µM (inactive).

Turning to `CCc1c(C)nc2ncnn2c1NCCc1ccc(OC)cc1`, the EC50 is 40.9 µM (inactive).

In the case of `CC(=O)Nc1ccc(S(=O)(=O)N2CCN(CCCOc3cc(C)ccc3C)CC2)cc1`, the EC50 is > 30 µM (inactive).

Regarding `Cc1nnc2ccc(Oc3ccc(-c4ccccc4)cc3)nn12`, the EC50 was > 30 µM (inactive).

Regarding `O=C(Nc1ccccc1C(F)(F)F)c1cc(-c2ccc(O)cc2)on1`, the EC50 is > 95.1 µM (inactive). As for `CCOC(=O)C1C(=O)C=C(c2ccc(OC)cc2)CC1c1ccco1` (stereo not given), the EC50 was > 30 µM (inactive). For the compound `CCCCOC(=O)c1[nH]c2c(c1C)C(=O)CC(c1cc(OC)c(OC)c(OC)c1)C2` (stereo not given), the EC50 was 12.1 µM (inactive).

With `Cc1ccc(S(=O)(=O)Nc2cccc3ncccc23)s1`, the EC50 is > 95.1 µM (inactive). `c1ccc(-c2ccc(-c3nc(-c4ccncc4)no3)cc2)cc1`: the EC50 is > 95.1 µM (inactive). For `COc1ccc2c(c1)CCc1c(C(=O)Nc3ccc(OC)c(OC)c3)noc1-2`, the EC50 was > 95.1 µM (inactive). Take `Cc1ccc(-n2ncc3c(N4CCCC(C)C4)ncnc32)c(C)c1` (stereo not given): the EC50 was 36.1 µM (inactive). The figure for `Cc1ccc2[nH]c3c(NCc4ccco4)ncnc3c2c1` is 30.9 µM (inactive); for `CCc1ccc(NC(=O)c2cc(-c3ccco3)on2)cc1` it is > 95.1 µM (inactive); for `Cc1cccc(-n2ncc3c(N(C)C4CCCCC4)ncnc32)c1` it is > 95.1 µM (inactive). Turning to `CC(C)c1ccc2oc(-c3cc(N)ccc3O)nc2c1`, the EC50 is > 30 µM (inactive).

As to `CCCCn1nnnc1SCC(=O)c1ccc(C)c(C)c1`, the EC50 is > 95.1 µM (inactive). `O=C(c1ccccc1)C(CCC(CN1CCOCC1)C(=O)c1ccccc1)CN1CCOCC1` (stereo not given): the EC50 was 2.68 µM. With `CCn1nc(-c2ccccc2)nc2c(=O)n(C)c(=O)nc1-2`, the EC50 is 2.09 µM. Next, `COc1ccccc1-c1nc(-c2ccc(Br)cc2)no1`: > 95.1 µM (inactive); `COc1ccc(OC)c(-c2cc(C(=O)Nc3c(C)nn(Cc4ccc(Cl)cc4)c3C)no2)c1`: > 95.1 µM (inactive); `Fc1ccc2[nH]c3c(N4CCN(c5ccccc5)CC4)ncnc3c2c1`: 18.5 µM (inactive).

Turning to `COc1ccc(-n2c(C)cc(C(=O)CSc3nnc(-c4cccs4)o3)c2C)cc1`, the EC50 is 32.3 µM (inactive). Consider `Cn1nc(CC(=O)Nc2ccc3c(c2)OCCO3)c2ccccc2c1=O`, for which the EC50 was > 30 µM (inactive). Take `Nn1c(Nc2ccccc2)nc2sc3c(c2c1=O)CCC3`: the EC50 is > 30 µM (inactive). In the case of `O=C(Nc1nccs1)c1ccc(S(=O)(=O)NCC2CCCCC2)cc1`, the EC50 is > 30 µM (inactive).

In the case of `Cc1nc2ccc3nc(NC(=O)C4COc5ccccc5O4)sc3c2s1` (stereo not given), the EC50 is > 95.1 µM (inactive). Take `Cc1ccc(-c2nnc(SCc3ccccc3F)o2)cc1`: the EC50 was > 95.1 µM (inactive). Consider `CCC(=O)Nc1ccc2c(c1)C(=O)N(C1CCCCC1)C2=O`, for which the EC50 was > 95.1 µM (inactive).

With `CCCc1ccc(OCc2nc(-c3ccc(NC(=O)c4ccco4)cc3)no2)cc1`, the EC50 was > 95.1 µM (inactive). With `COc1ccc(-c2noc(-c3ccccc3F)n2)cc1`, the EC50 is > 95.1 µM (inactive). Take `CCn1nc(-c2cccs2)nc2c(=O)n(C)c(=O)nc1-2`: the EC50 is 12.3 µM (inactive). For the compound `Cc1ccc(-c2nc(COC(=O)c3c(C)noc3C)cs2)cc1`, the EC50 was > 95.1 µM (inactive). On to `Cc1ccccc1-c1nnc(SCc2ccccc2F)o1`, for which the EC50 was > 95.1 µM (inactive). As for `OC(c1cccc(OCc2ccccc2)c1)c1nnc(-c2ccccc2)o1` (stereo not given), the EC50 was > 30 µM (inactive). Turning to `COc1ccc(S(=O)(=O)Cc2ccc(C(=O)N3CCN(c4ccc(Cl)cc4)CC3)o2)cc1`, the EC50 was > 30 µM (inactive). In the case of `CCOc1cc(C2NCc3ccccc3-n3cccc32)ccc1O` (stereo not given), the EC50 was > 95.1 µM (inactive). In the case of `Cc1csc(SCC(=O)c2cc(C)n(Cc3cccs3)c2C)n1`, the EC50 was 38.8 µM (inactive). In the case of `CCOc1ccc(-c2nnc(-c3cccnc3)o2)cc1OCC`, the EC50 is > 95.1 µM (inactive). Consider `Cc1cccc(-c2nc(C#N)c(NC3CCCCC3)o2)c1`, for which the EC50 was > 95.1 µM (inactive). As to `CCOc1cc(-c2noc(-c3cccnc3)n2)ccc1OC`, the EC50 is > 95.1 µM (inactive). `Cc1ccccc1OCC(=O)Nc1ccc(N2CCN(C(=O)C(C)C)CC2)c(Cl)c1`: the EC50 was 26 µM (inactive).

Regarding `O=C(c1ccc(F)cc1)C(CN1CCOCC1)c1ccccc1` (stereo not given), the EC50 was 11.4 µM (inactive).

With `c1ccc(CSc2nnc(-c3cccs3)o2)cc1`, the EC50 was > 95.1 µM (inactive). The figure for `Cc1ccc(Cl)cc1N1CCN(C(=O)C2CCN(c3nnc(-n4cccc4)s3)CC2)CC1` is > 95.1 µM (inactive); for `Clc1ccc(CCNc2ncnc3nc[nH]c23)cc1` it is 33.6 µM (inactive); for `CC(Oc1ccccc1Br)C(=O)N1CCc2ccccc21` (stereo not given) it is > 95.1 µM (inactive). On to `Clc1ccc(CSc2nnc(-c3ccncc3)o2)cc1`, for which the EC50 was 86.9 µM (inactive). `Cc1nn(C(=O)c2cccs2)c(N)c1-c1ccccc1`: the EC50 is > 30 µM (inactive). For `CCOc1nc(C)ccc1-c1noc(-c2ccncc2)n1`, the EC50 was > 95.1 µM (inactive). As for `CCOc1ccccc1OCCCCCc1c(C)n[nH]c1C`, the EC50 is > 30 µM (inactive). For the compound `O=C(c1cc(-c2ccccc2)on1)N1CCN(Cc2ccc3c(c2)OCO3)CC1`, the EC50 was > 30 µM (inactive).

Turning to `Cc1cc(N2CCN(C/C=C/c3ccccc3)CC2)n2ncnc2n1`, the EC50 is > 95.1 µM (inactive). As to `O=S1(=O)C=C(Sc2nnc(-c3ccccc3)o2)c2ccccc21`, the 50% effective concentration (EC50) is 3.16 µM. Take `CC(C)Cc1cc(C(=O)Nc2sc3c(c2C#N)CCCC3)no1`: the EC50 is > 95.1 µM (inactive).

Turning to `Cc1ccc(Cl)cc1N1CCN(C(=O)COc2ccc(S(=O)(=O)NC(C)C)cc2)CC1`, the EC50 was 30 µM (inactive). Take `Cc1ccnc(SCC(=O)Nc2sc3c(c2C#N)CCCC3)n1`: the EC50 is > 30 µM (inactive). As to `COC(=O)C1=CN(CCCN2CCCC2=O)C=C(C(=O)OC)C1c1ccccc1C(F)(F)F`, the EC50 is > 95.1 µM (inactive). For `Cc1noc(C)c1S(=O)(=O)N(CC(=O)Nc1ccc2c(c1)OCO2)c1ccc(C(C)C)cc1`, the EC50 was > 95.1 µM (inactive).
